Data as given in US11746116B2, “Antibiotic resistance breakers” (KING'S COLLEGE LONDON, priority 2017, dated 2023).
In brackets after ≈: the same amount, converted by molar mass. Read-outs that look alike come from different tables or passages of the source.

What was measured:
[1] = test system: SA2; assay: MIC, extended Gram-positive panel; format: cell-based, S. aureus; settings: S. aureus SA2
[2] = test system: MSSA9144; assay: MIC, microdilution broth method; format: cell-based, Staphylococcus aureus
[3] = test system: UKA7; assay: MIC, A. baumannii extended panel; format: cell-based
[4] = test system: UKA12; assay: MIC, A. baumannii extended panel; format: cell-based
[5] = test system: VRE12204; assay: MIC, microdilution broth method; format: cell-based, Enterococcus faecium; settings: in µg/mL
[6] = test system: UKA10; assay: MIC, A. baumannii extended panel; format: cell-based
[7] = test system: UKA13; assay: MIC, A. baumannii extended panel; format: cell-based
[8] = test system: Ab17978; assay: MIC, microdilution broth method; format: cell-based
[9] = test system: 12156; assay: MIC, A. baumannii extended panel; format: cell-based; settings: A. baumannii 12156
[10] = test system: 13423; assay: MIC, A. baumannii extended panel; format: cell-based; settings: A. baumannii 13423
[11] = test system: VSE775; assay: MIC, microdilution broth method; format: cell-based, Enterococcus faecalis; design: MIC, VSE775: unit not given beside the values
[12] = test system: PA01; assay: MIC, microdilution broth method; format: cell-based, Pseudomonas aeruginosa
[13] = test system: VRE12201; assay: MIC, microdilution broth method; format: cell-based, Enterococcus faecalis
[14] = test system: EC12923; assay: MIC, microdilution broth method; format: cell-based
[15] = test system: M6; assay: MIC, microdilution broth method; format: cell-based
[16] = test system: KP13368; assay: MIC, microdilution broth method; format: cell-based
[17] = test system: EMRSA16; assay: MIC, microdilution broth method; format: cell-based, Staphylococcus aureus; settings: for MIC, EMRSA16: in µg/mL
[18] = test system: AYE; assay: MIC, microdilution broth method; format: cell-based, Acinetobacter baumannii
[19] = test system: PA13437; assay: MIC, microdilution broth method; format: cell-based; settings: ESKAPE panel, Gram-negative
[20] = test system: multidrug resistant strains; assay: Reserpine growth assay in several multidrug resistant strains (FIG. 27); format: cell-based; settings: compared to ML-83-009 or levofloxacin
Description: Reserpine was added at a final concentration of 10 μg/mL (made up at 40 μg/mL in TSB, 50 μL per well). The bacteria were added at an OD of 0.01 in TSB (100 μL/well). The plate was a normal clear plate as used for MICs. OD was read every 30 minutes for 9 hours (the literature states 7 hours, but this is strain-dependent).

[21] = test system: extended panel of MDR strains with known multiple target mutations; format: cell-based
[22] = test system: EMRSA15; assay: MIC, microdilution broth method; format: cell-based, Staphylococcus aureus; settings: for MIC, EMRSA15: in µg/mL; for MIC: Staphylococcus aureus, Staphylococcus aureus (EMRSA15), read-out: MIC
[23] = ESKAPE panel, Gram-positive, in µg/mL
[24] = ESKAPE panel, Gram-negative, in µg/mL

`O=C(O)c1cn(C2CC2)c2cc(N3CCNCC3)c(F)cc2c1=O` [Ciprofloxacin, ciprofloxacin, reference compound] was tested, and the MIC [1] was 1 µg/mL (≈ 3.02 µM), the MIC ([2]; MSSA9144, in µg/mL) was 0.25 and the MIC [3] was > 512 µg/mL. For the same molecule, the MIC [4] was 512 µg/mL (≈ 1550 µM), the MIC ([5]; VRE12204) was 1 and the MIC [6] was 256 µg/mL (≈ 773 µM). For the same molecule, the MIC [7] was 512 µg/mL (≈ 1550 µM), the MIC ([8]; Ab17978, Normal (no PMBN), in µg/mL) was 0.25 and the MIC [9] was 1 µg/mL (≈ 3.02 µM). The MIC [10] was 256 µg/mL (≈ 773 µM), the MIC ([11]; VSE775, in µg/mL) was 1 and the MIC ([12]; PA01, Normal (no PMBN), in µg/mL) was 0.25.
In the case of `C[C@H]1COc2c(N3CC[C@@H](Nc4ncccn4)C3)c(F)cc3c(=O)c(C(=O)O)cn1c23` [KSN-L22], the “MIC, VRE12201” value [13, 23] is reported as 0.06, the MIC ([13]; Enterococcus faecalis, Enterococcus (VRE12201), Gram-Positive, read-out: MIC) is reported as 0.06 µg/mL (≈ 0.141 µM) and the “MIC, MSSA9144” value [2, 23] is reported as ≤0.03. For the same molecule, the MIC ([2]; Staphylococcus aureus (MSSA9144), Gram-Positive, read-out: MIC) was ≤ 0.03 µg/mL, the “MIC, EC12923” value [14, 24] was 0.5 and the MIC ([14]; Escherichia coli (EC12923), Gram-Negative, read-out: MIC) was 0.5 µg/mL (≈ 1.18 µM). The “MIC, M6” value [15, 24] was 1, the MIC ([15]; Klebsiella pneumoniae (M6), Gram-Negative, read-out: MIC) was 1 µg/mL (≈ 2.35 µM) and the MIC, KP13368 ([16]; ESKAPE panel, Gram-negative) was 4 µg/mL (≈ 9.4 µM). For the same molecule, the MIC ([16]; Klebsiella pneumoniae (KP13368), Gram-Negative, read-out: MIC) was 4 µg/mL (≈ 9.4 µM), the “MIC, VRE12204” value ([5]; ESKAPE panel, Gram-positive) was 1 and the “MIC, EMRSA16” value ([17]; EMRSA16 (Table 16, role of the terminal pyrimidine ring)) was 1. The “MIC, EMRSA16” value ([17]; ESKAPE panel, Gram-positive) was 1, the MIC ([17]; S. aureus EMRSA16, gyrA, 84:S => L, grlA, 80:S => F (Table 11)) was 1 and the MIC ([17]; Staphylococcus aureus (EMRSA16), Gram-Positive (Table 14)) was 1 µg/mL (≈ 2.35 µM). The MIC ([17]; Staphylococcus aureus (EMRSA16), Table 12, read-out: MIC) was 1 µg/mL (≈ 2.35 µM), the MIC ([18]; Acinetobacter baumannii (AYE), Gram-Negative, read-out: MIC) was 4 µg/mL (≈ 9.4 µM) and the “MIC, AYE” value [18, 24] was 4. The MIC, PA13437 [19] was > 32 µg/mL, the MIC ([8]; Acinetobacter baumannii) was 0.125 µg/mL (≈ 0.294 µM) and the “MIC, Ab17978” value [8, 24] was 0.125. For the same molecule, the “efflux from the bacteria (reserpine growth assay)” value [20] was “reduced efflux”, the MIC ([21]; E. faecalis EF 602) was 0.25 µg/mL (≈ 0.588 µM) and the MIC ([21]; E. faecium EF 205) was 0.12 µg/mL (≈ 0.282 µM). The MIC ([21]; S. aureus SA 046, gyrA, 84:S => L, grlA, 80:S => F) was 1 µg/mL (≈ 2.35 µM), the MIC ([21]; S. aureus SA 105, gyrA, 84:S => L, grlA, 80:S => F) was 1 µg/mL (≈ 2.35 µM) and the MIC ([21]; S. aureus SA 215, gyrA, 84:S => L, grlA, 80:S => F) was 1 µg/mL (≈ 2.35 µM). The MIC ([21]; S. aureus SA 275, gyrA, 84:S => V, grlA, 80:S => F) was 1 µg/mL (≈ 2.35 µM), the MIC ([21]; S. aureus SA 318, gyrA, 84:S => L, grlA, 80:S => F) was 1 µg/mL (≈ 2.35 µM) and the MIC ([21]; S. aureus SA 388, gyrA, 84:S => L, grlA, 80:S => F) was 1 µg/mL (≈ 2.35 µM). For the same molecule, the “MIC, EMRSA15” value ([22]; EMRSA15 (Table 16, role of the terminal pyrimidine ring)) was 0.5-1, the “MIC, EMRSA15” value ([22]; ESKAPE panel, Gram-positive) was 0.5 and the MIC ([22]; Gram-Positive (Table 14)) was 0.5 µg/mL (≈ 1.18 µM). The MIC ([22]; Table 12) was 0.5 to 1 µg/mL (≈ 1.18 to 2.35 µM), the “MIC, VSE775” value ([11]; ESKAPE panel, Gram-positive) was 0.06 and the MIC ([11]; Enterococcus faecalis, Enterococcus (VRE775), Gram-Positive, read-out: MIC) was 0.06 µg/mL (≈ 0.141 µM). The “MIC, PA01” value [12, 24] was 4 and the MIC ([12]; Pseudomonas aeruginosa (PA01), Gram-Negative, read-out: MIC) was 4 µg/mL (≈ 9.4 µM).
